Literature values in US20190336443A1 (Navinta III Inc, priority 2018, published 2019).

Legend:
[1] = pH sensitive
[2] = all animal species with adequate studies (rodents and rabbits)

In the case of `NC(=O)c1ncn([C@@H]2O[C@H](CO)[C@@H](O)[C@H]2O)n1` [Ribavirin, 1-beta-D-ribofuranosyl-1H-1,2,4-triazole-3-carboxamide], the solubility in ethanol is given as “slight solubility”, the “degradation in a liquid formulation” value [1] is given as “readily degraded by hydrolysis” and the “teratogenic and/or embryocidal potential” value [2] is given as “significant teratogenic and/or embryocidal potential”.
